Laboratory results from publication PMC10547880, “Synthesis and biological evaluation of novel 1,2,3-triazole hybrids of cabotegravir: identification of potent antitumor activity against lung cancer” (Frontiers in Pharmacology, 2023).
“Also recorded” adds a separate entry of the source.

Legend:
Type in all cases: cell-based, Human
H1299 cells [1] = assay: Live/dead cell staining (Calcein-AM/PI), H1299; conditions: H1299, 5, 10, 20 μM, 24 h
Protocol: Cells with a density of 5 × 10^3 cells per well were seeded in a 96-well plate. After overnight incubation, cells were treated with different concentrations (0, 5 μM, 10 μM, 20 μM) of compounds for 24 h. The LIVE/DEAD Assay Kit was used to dye cells, and cells were observed and photographed under a fluorescent microscope. Live and Dead cell numbers were counted and the ratio of dead to living cells were calculated. Values were expressed as Mean ± SEM, p < 0.05 was considered statistically significant. Data were performed using Graph Prim 7.0.
To assess the anti-proliferative effects of compound 5i, live/dead cell staining was performed using Calcein Acetoxymethyl Ester (Calcein-AM) and Propidium Iodide (PI) dyes ([Xie et al., 2023]). Calcein-AM highlights live cells through green fluorescence emission, while PI identifies dead cells with damaged membrane integrity, producing red fluorescence. H460 and H1299 cells were treated with different concentrations (0, 5, 10 and 20 μM) of compound 5i for 24 h. After 24 h treatment, cells were stained with Calcein-AM and PI, diluted in cultured medium, and incubated for an hour in dark. Then the fluorescence was detected and photographed using a fluorescent microscope. […] In addition, we also performed plate clone formation assay ([Xu et al., 2018]) to further investigate the anti-proliferation ability of compound 5i. […]

LO2 cells = assay: CCK8 cell viability, normal cell line LO2; conditions: LO2 normal liver cells, 25 μM, 72 h
Protocol: (§1) Human lung cancer cell line H460 and H1299, human liver normal cell line LO2 were bought from ATCC. DMEM or RPMI 1640 was used as the cell culture medium with 10% FBS and 1% penicillin/streptomycin. Cells were maintained in an incubator with 37°C humidified atmosphere and 5% CO2.
(§2) Cell viability and IC50 values were determined using the CCK8 assay kit. Cells were seeded at a density of 5 × 10^3 cells per well in a 96-well plate. After overnight adhesion, 25 μM of compounds or vehicle control DMSO which all dissolved in the culture medium were added to cells and cultured for 48 h or 72 h. CCK8 reagent, dissolved in the medium, was then added to cells and incubated for 1 h. The absorbance at 450 nm was measured using a microplate spectrophotometer (Thermo). Cell viability was calculated, with the untreated group taken as 100%. For IC50 values determination, different concentrations (0, 0.4 μM, 2 μM, 10 μM, 20 μM, 50 μM) of compounds were added to cells for 72 h. Subsequent CCK8 measurement allowed the calculation of inhibition percentage based on cell viability. The IC50 values were computed by the prism statistical software. The CCK-8 assay was conducted three times and the repetitions in each time were at least three. All the values were expressed as Mean ± SD, p < 0.05 was considered statistically significant.
(§3) In order to assess the potential cytotoxicity of the synthesized compounds, we selected two types of human non-small-cell lung cancer cell line, H460 and H1299. Cell viability and cytotoxicity were evaluated using the CCK8 assay ([Xu et al., 2018]). The cells were treated with 25 μM of compounds 5a-5s and 6a-6i for 48h and 72 h. […] In contrast, no compounds managed to reduce H1299 cell viability to less than 50%, yet compounds 5i, 5m, 6h and 6i achieved cell viability rates below 70%. […] It is worth noting that minimal effects on the cell viability of the normal cell line LO2 were observed when exposed to these compounds. Further, we determined the half-maximal inhibitory concentration (IC50) of selected compounds against H460 cells, the results of which were summarized in Table 3.

H1299 cells [2] = assay: CCK8 cell viability, H1299; conditions: H1299, 25 μM, 48 h
Protocol: as §1, §2, §3

H460 cells = assay: Western blot of protein expression, H460; conditions: H460, 2, 4, 8 μM, 72 h
Protocol: (§4) Western blot was used to analyze protein expressions. Cells were cultured in 12-well plates and treated with different concentrations (0, 2, 4, 8 μM) of compounds for 72 h. Cell proteins were extracted using RIPA buffer with protease/phosphatase inhibitor cocktail (CST). 10%–15% sodium dodecyl sulfate polyacrylamide gel electrophoresis was used to separate proteins and nitrocellulose membranes (Millipore) was used to collected proteins. Antibodies used in western bolt were LC3 (3868s, CST), caspase 3 (9662s, CST), cyclin D (2922s, CST), cyclin E (20808s, CST), β-Catenin (9562s, CST), γH2AX (9718s, CST), PARP (46D11, CST), and β-actin (4967s, CST). Values were expressed as Mean ± SEM, p < 0.05 was considered statistically significant. Data were performed using Graph Prim 7.0.
(§5) Western blot analysis was performed to assess the protein expressions involved in cell growth and cell death processes. H460 and H1299 cells were treated with different concentrations of compound 5i, and whole cell proteins were collected for analysis. […] Autophagy has both tumor suppression and growth promotion effects in cancers, depending on the cellular context and cancer stage. On the one hand, autophagy inhibits cancer development via eliminating dysfunctional proteins and damaged mitochondria. On the other hand, autophagy can promote tumor growth by providing recycled metabolites to support cancer cell survival and growth ([Wang et al., 2023]). […] But in H1299 cells, compound 5i exerted its anticancer ability by suppressing cell division and proliferation.

H1299 cells [3] = assay: Western blot of protein expression, H1299; conditions: H1299, 2, 4, 8 μM, 72 h
Protocol: as §4, §5

Q: `COc1c2n(cc(C(=O)Nc3cccc(-c4cn(-c5ccccc5OC(F)(F)F)nn4)c3)c1=O)CC1OCC(C)N1C2=O` (centres unmarked) [Compound 5i] was tested. Which “live and dead cell numbers” value (H1299 cells [1]) did it give?
A: decrease in live cell numbers alongside a substantial rise in dead cells

Q: What about the Cell viability (LO2 cells) of the same compound?
A: 99.80%

Q: And the Cell viability (H1299 cells [2])?
A: 90.47%

Q: What about the “Cyclin D expression” value (H460 cells) of the same compound?
A: no significant differences

Q: What about the “Cyclin E expression” value (H460 cells) of the same compound?
A: no significant differences

Q: And the LC3 expression (H460 cells)?
A: pronounced elevation; also recorded: significant increase

Q: What about the PARP expression (H460 cells) of the same compound?
A: no significant differences

Q: And the caspase3 expression (H460 cells)?
A: no significant differences

Q: What about the β-catenin expression (H460 cells) of the same compound?
A: no significant differences

Q: And the γ-H2AX expression (H460 cells)?
A: no significant differences

Q: And the “Cyclin D level” value (H1299 cells [3])?
A: decrease

Q: And the “Cyclin E level” value (H1299 cells [3])?
A: decrease

Q: What about the LC3 expression (H1299 cells [3]) of the same compound?
A: no significant differences

Q: And the PARP expression (H1299 cells [3])?
A: remained unaffected

Q: And the “caspase3 expression” value (H1299 cells [3])?
A: no significant differences

Q: What about the β-catenin expression (H1299 cells [3]) of the same compound?
A: remained unaltered

Q: And the γ-H2AX expression (H1299 cells [3])?
A: pronounced elevation; also recorded: increased expression
